Measurements reported in ChEMBL document CHEMBL4257455, “Recent development of lipoxygenase inhibitors as anti-inflammatory agents” (Medchemcomm, 2018).

Key:
[1] = Inhibition of LOX (unknown origin); parameters: species or system Homo sapiens
Mus musculus = test: Anti-inflammatory activity in mouse assessed as inhibition of xylene induced ear edema at 30 mg/kg relative to control; assay type: functional; parameters: scale not given: the % may be the effect or the level left
[2] = Inhibition of soybean 5LOX using linoleic acid as substrate preincubated for 5 mins followed by substrate addition and measured after 20 mins by spectrophotometric analysis; parameters: species or system Glycine max
[3] = biological target: T1, Polyunsaturated fatty acid lipoxygenase ALOX15 (Homo sapiens, UniProt P16050); test: Inhibition of human N-terminal His-tagged 15-LOX expressed in Escherichia coli(Rosetta) by rhodamine 123 dye-based fluorescence assay
T1 sequence (P16050 whole entry): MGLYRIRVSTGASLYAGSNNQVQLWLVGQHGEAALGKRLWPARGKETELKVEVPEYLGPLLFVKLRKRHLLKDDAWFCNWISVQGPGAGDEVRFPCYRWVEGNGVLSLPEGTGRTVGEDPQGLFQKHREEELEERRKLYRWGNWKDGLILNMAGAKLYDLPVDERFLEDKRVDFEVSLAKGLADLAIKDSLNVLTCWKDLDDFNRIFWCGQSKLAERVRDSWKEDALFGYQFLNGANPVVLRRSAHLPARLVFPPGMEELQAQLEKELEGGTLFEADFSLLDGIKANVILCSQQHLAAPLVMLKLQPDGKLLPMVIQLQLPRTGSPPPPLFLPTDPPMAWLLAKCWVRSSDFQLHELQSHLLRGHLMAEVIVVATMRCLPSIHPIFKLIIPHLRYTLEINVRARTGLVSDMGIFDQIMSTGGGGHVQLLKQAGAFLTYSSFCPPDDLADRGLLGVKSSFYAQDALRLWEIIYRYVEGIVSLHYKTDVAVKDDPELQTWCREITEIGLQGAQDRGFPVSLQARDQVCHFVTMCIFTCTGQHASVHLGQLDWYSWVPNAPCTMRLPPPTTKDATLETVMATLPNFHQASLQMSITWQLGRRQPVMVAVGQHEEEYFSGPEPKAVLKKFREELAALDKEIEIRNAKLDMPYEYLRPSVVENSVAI

[4] = biological target: T2, Polyunsaturated fatty acid lipoxygenase ALOX12 (Homo sapiens, UniProt P18054); test: Inhibition of human N-terminal His-tagged 12-LOX expressed in Escherichia coli(Rosetta) by rhodamine 123 dye-based fluorescence assay
T2 sequence (P18054 whole entry): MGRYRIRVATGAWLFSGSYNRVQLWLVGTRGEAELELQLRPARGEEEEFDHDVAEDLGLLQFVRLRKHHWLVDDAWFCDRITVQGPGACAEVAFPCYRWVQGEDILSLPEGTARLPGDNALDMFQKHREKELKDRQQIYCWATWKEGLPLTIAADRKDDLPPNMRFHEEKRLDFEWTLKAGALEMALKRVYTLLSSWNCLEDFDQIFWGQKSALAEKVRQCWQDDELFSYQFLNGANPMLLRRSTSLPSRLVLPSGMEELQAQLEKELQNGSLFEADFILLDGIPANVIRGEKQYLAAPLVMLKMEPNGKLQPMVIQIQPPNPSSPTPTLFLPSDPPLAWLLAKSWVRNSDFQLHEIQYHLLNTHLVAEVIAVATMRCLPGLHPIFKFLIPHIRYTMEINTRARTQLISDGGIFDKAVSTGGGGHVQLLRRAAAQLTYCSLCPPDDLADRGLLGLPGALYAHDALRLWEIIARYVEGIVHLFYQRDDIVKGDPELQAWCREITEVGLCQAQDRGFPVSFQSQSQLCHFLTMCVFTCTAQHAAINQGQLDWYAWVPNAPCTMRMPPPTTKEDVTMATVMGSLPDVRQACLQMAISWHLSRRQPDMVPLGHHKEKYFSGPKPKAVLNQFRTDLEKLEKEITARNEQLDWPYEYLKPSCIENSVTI

[5] = biological target: T3, Polyunsaturated fatty acid 5-lipoxygenase (Homo sapiens, UniProt P09917); test: Inhibition of human N-terminal His-tagged 5-LOX expressed in Escherichia coli(Rosetta) by rhodamine 123 dye-based fluorescence assay
T3 sequence (P09917 whole entry): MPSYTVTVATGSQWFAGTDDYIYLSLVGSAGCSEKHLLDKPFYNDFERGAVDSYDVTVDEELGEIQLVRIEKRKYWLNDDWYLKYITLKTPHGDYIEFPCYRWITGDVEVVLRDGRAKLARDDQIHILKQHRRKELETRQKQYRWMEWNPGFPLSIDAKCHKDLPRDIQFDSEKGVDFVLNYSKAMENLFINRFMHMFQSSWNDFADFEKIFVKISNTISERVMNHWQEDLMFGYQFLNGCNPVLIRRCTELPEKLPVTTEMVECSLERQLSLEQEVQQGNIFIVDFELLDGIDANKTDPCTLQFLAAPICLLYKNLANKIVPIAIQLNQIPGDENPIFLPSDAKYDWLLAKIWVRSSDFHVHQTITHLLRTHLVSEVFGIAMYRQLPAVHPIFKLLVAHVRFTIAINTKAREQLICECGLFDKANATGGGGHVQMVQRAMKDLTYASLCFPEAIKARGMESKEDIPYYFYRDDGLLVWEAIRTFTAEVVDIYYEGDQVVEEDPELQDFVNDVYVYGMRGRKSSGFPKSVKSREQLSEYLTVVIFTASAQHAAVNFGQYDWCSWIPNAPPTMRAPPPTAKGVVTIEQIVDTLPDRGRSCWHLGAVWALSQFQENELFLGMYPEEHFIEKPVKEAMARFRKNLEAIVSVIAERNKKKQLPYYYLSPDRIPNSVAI

[6] = Inhibition of soybean 15-LOX using linoleic acid as substrate preincubated for 15 mins followed by substrate addition and measured up to 6 mins by spectrophotometric analysis; parameters: species or system Glycine max
[7] = biological target: T4, Polyunsaturated fatty acid 5-lipoxygenase (Rattus norvegicus, UniProt P12527); test: Inhibition of rat 5-LOX expressed in Sf21 insect cells preincubated for 4 mins followed by AA substrate addition and measured after 4 mins by FOX assay
T4 sequence (P12527 whole entry): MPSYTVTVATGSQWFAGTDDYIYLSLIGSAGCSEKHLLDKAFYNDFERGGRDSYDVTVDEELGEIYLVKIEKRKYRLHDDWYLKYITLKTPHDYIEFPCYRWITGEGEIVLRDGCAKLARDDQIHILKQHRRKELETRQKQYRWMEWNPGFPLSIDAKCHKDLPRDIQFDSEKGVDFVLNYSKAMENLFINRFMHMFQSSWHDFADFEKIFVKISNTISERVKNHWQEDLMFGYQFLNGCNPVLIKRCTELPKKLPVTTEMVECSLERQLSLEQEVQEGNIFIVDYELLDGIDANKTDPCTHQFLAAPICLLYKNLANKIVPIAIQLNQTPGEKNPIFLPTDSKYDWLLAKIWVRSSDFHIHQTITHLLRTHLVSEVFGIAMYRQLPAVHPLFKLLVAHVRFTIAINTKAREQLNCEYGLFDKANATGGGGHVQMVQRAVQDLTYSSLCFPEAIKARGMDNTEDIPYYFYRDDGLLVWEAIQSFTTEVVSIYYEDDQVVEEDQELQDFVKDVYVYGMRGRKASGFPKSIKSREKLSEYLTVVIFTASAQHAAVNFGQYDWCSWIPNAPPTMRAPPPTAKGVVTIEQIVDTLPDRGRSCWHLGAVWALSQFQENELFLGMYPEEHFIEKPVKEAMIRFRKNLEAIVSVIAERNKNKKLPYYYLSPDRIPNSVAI

[8] = biological target: T3, Polyunsaturated fatty acid 5-lipoxygenase; test: Inhibition of 5-LOX (unknown origin)
[9] = biological target: T5, Arachidonate 5-lipoxygenase-activating protein (Homo sapiens, UniProt P20292); test: Inhibition of FLAP in human leukocytes assessed as decrease in ionophore A23187-induced LT biosynthesis after 10 mins; assay type: cell-based
T5 sequence (P20292 whole entry): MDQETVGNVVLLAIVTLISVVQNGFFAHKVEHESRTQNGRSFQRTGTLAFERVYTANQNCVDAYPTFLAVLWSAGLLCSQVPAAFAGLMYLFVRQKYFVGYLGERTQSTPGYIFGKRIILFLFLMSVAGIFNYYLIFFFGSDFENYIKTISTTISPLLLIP

[10] = biological target: T6, Polyunsaturated fatty acid lipoxygenase ALOX15 (Homo sapiens) (UniProt P16050); test: Inhibition of 15-LOX (unknown origin) at 12.7 uM relative to control
T6 sequence (whole entry): T1 sequence (P16050 whole entry)

[11] = biological target: T7, Seed linoleate 13S-lipoxygenase-1 (Glycine max, UniProt P08170); test: Inhibition of soybean LOX-1 using linoleic acid as substrate preincubated for 120 secs with substrate followed by enzyme addition and measured every 30 secs for 7.5 mins by spectrophotometric analysis
T7 sequence (P08170 whole entry): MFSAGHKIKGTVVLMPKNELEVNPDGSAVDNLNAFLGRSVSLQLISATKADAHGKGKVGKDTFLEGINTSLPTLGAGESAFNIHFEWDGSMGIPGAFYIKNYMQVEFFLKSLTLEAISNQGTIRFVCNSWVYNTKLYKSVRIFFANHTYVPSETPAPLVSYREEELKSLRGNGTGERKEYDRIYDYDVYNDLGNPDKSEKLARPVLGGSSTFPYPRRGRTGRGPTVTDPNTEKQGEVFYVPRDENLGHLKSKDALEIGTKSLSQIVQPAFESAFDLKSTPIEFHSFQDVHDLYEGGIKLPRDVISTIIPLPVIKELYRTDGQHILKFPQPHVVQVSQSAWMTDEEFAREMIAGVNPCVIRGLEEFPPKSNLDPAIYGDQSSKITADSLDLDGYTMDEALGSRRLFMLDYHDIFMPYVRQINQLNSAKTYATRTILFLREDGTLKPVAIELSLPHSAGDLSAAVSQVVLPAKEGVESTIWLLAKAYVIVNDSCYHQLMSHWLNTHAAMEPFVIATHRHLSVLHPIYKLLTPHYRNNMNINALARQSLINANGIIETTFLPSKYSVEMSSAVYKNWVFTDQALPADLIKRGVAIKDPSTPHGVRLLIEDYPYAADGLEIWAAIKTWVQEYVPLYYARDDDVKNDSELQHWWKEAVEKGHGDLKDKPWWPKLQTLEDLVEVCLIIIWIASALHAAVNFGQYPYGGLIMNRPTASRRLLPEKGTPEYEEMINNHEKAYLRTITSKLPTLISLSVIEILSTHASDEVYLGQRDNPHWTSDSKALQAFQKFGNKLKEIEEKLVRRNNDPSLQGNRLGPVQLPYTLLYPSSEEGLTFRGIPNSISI

[12] = biological target: T5, Arachidonate 5-lipoxygenase-activating protein; test: Inhibition of FLAP in human neutrophils assessed as decrease in LT biosynthesis preincubated for 15 mins followed by AA substrate addition by HPLC analysis

CS(=O)(=O)c1ccc(-c2nc(SCCN(O)C(N)=O)nn2-c2ccc(Br)cc2)cc1
IC50 [1]: 0.85 µM | Activity (Mus musculus): 54.1%

COc1ccc2nc(NCC(O)COc3ccc4c(C)cc(=O)oc4c3)sc2c1 (stereo not given)
IC50 [2]: 2100 nM

CC(C)=CCc1c(O)cc(-c2cc3ccc(O)cc3o2)cc1O [MORACIN C]
IC50 [3]: 1210 nM | IC50 [4]: 210 nM | IC50 [5]: 2350 nM

CCCCC(=O)c1c(O)cc(O)c(C/C=C(\C)CCC=C(C)C)c1O
IC50 [6]: 10.3 µM

Cc1cc(Nc2nc(-c3ccc(Cl)cc3)cs2)cc(C)c1O
IC50 [7]: 127 nM

CS(=O)(=O)c1ccc(-n2nc(-c3ccc(-c4ccccc4)cc3)c3ccccc3c2=O)cc1
IC50 [8]: 6.2 µM

O=C(O)Cc1c[nH]c2ccccc12 [INDOLE-3-ACETIC ACID]
IC50 [1]: 43 µM

CC(C)c1ccc2c(c1)c(SC(C)(C)C)c(CC(C)(C)C(=O)O)n2Cc1ccc(Cl)cc1
IC50 [9]: 102 nM

CC(C)/C=C/c1c(O)cc(-c2cc3ccc(O)cc3o2)cc1O
IC50 [4]: 1300 nM | IC50 [5]: 1670 nM

O=C(Cc1c[nH]c2ccccc12)NN=C(c1ccccc1)c1ccccc1
IC50 [1]: 53.6 µM

C/C(=C\COc1cc2oc(=O)ccc2cc1O)C/C=C/C(C)(C)O
inhibition [10]: 34.8%

O=C(O)CCCc1c[nH]c2ccccc12
IC50 [1]: 17.8 µM

Cc1cc(=O)oc2cc(OCC(O)CNc3nc4ccc(Cl)cc4s3)ccc12 (stereo not given)
IC50 [2]: 2800 nM

CC[C@H](C)/C=C(C)/C=C/C1=C(Br)C2=CC(=O)C(C)(O)C(=O)C2=CO1 (stereo not given in full)
IC50 [11]: 3.2 µM

Cc1noc(-c2ccc(OCc3ccc4ccccc4n3)cc2)c1-c1ccc(Cl)cc1
IC50 [12]: 4.4 µM

Cc1ccc(-c2cc(C(F)(F)F)nn2-c2ccc(S(N)(=O)=O)cc2)cc1 [CELECOXIB]
Activity (Mus musculus): 46.7%
